Experiment [1] has as its system homodimerized RACK1A maintaining yeast cells (AA). The experiment can be described thus: UV-B induced cell death in homodimerized RACK1A maintaining yeast cells (AA). Type of experiment: cell-based. The note with it: 60 μM overnight, Live/dead staining, vs DMSO-only control. How it is done: (§1) In this experiment, yeast cells were irradiated with UV-B light to analyze the effect of SD-29 analogs on UV-B induced cell death. The yeast cells were developed to assay for RACK1A homodimerization assays using split-ubiquitin technique. In this assay, homodimerized RACK1A maintaining yeast cells (AA) were grown overnight in the presence of 60 μM of the indicated compounds. Yeast cells treated overnight with SD-29-7, SD-29-9, and SD-29-11 with and without exposure to UV-B were compared to a DMSO-only control. The cells were stained with Invitrogen's Live/dead cell assay system where dead cells appeared as intensely fluorescent with brightness under a fluorescent microscope.
(§2) In this experiment, yeast was treated with UV-B to analyze the effect of SD-29-12 on UV-B induced cell death. Two groups of yeast were used. One was the yeast used in Example 6 (“AA”) and the other (“YY”) is a Y248F mutant. The AA cells can homodimerize but YY cells cannot.
(§3) The yeast was treated overnight with SD-29-12 and then followed the same protocol as described in Example 6.

The next experiment concerns the target RACK1A (Arabidopsis thaliana, UniProt O24456). The experiment can be described thus: in-vitro assay of tyrosine phosphorylation (Y248) based homodimerization of RACK1A. In kind it is biochemical. The settings on record: in-vitro assay. From the text: A crystal structure of Arabidopsis thaliana RACK1 protein has been reported. Deducing the crystal structure of the Arabidopsis RACK1A protein highlighted the potential functional residues of the protein. Noteworthy in the structure was the functionally conserved tyrosine phosphorylation residue (Y248) that has been implicated in RACK1A function. Therefore, it was undertaken to identify a chemical inhibitor of Y248 phosphorylation that would serve as a potential “anti-stress” compound in countering environmental stresses in plants. In order to identify small compounds occupying the Y248 pocket, docking simulations with a subset of 30,000 compounds were performed. Based on ranking with an energy cut-off of 25 kcal/mol, 3,011 compounds were then selected. Upon further re-ranking, 46 lead compounds were identified and 11 compounds were screened for their efficacy in an in-vitro assay. […] Those six compounds include SD-29, SD-29-9, SD-29-11, SD-29-22, SD-34, and SD-125.

A further experiment has as its target T1, Arabidopsis RACK1A (Arabidopsis thaliana, UniProt O24456).
T1 construct: from tissue; host or cells: Arabidopsis plant leaves
Briefly: western blot of RACK1A tyrosine phosphorylation in Arabidopsis leaves under heat stress. Type of experiment: in vivo. The note with it: 42° C. for three hours, western blot, antibody to phosphorylated Y248. How it is done: In the examples described herein, the test compounds (e.g., SD-29 or analogs thereof) were dissolved in dimethyl sulfoxide (DMSO) to provide a 20 mM concentration. Micromolar concentrations were then prepared as needed by addition to the water incubation media. Unless stated otherwise, the experimental plants were incubated with the roots immersed in the water containing the compound. The control plants received only DMSO in the same amount as that of the compound. In the second group (FIG. 3), Arabidopsis plants were held at 42° C. for six hours and compared to control plants held at about 22° C. The Arabidopsis plant in the experimental group was treated with 60 μM SD-29 in water. A control plant received water and DMSO. Lysates were then prepared from the leaves and western blots were performed using immobilized mouse anti-pTRY and Arabidopsis-anti RAC[…]. […] A similar experiment was carried out using analog SD-29-9 and SD-29 at 42° C. for three hours. […] A western blot was then performed using an antibody that was raised targeting phosphorylated […] residue of RAC[…].

In the next experiment the test system is Y248F mutant yeast (YY). The experiment can be described thus: UV-B induced cell death in Y248F mutant yeast (YY). Type of experiment: cell-based. The settings on record: treated overnight, Live/dead staining. How it is done: as §1, §2, §3
The subject of the next experiment is Arabidopsis plants. The experiment can be described thus: high temperature stress (42° C.) in Arabidopsis plants. Type of experiment: in vivo, Arabidopsis thaliana.
Another experiment concerns plant. Briefly: salt sensitivity when applied to a plant. The note with it: in vivo.

Structures are written as SMILES.

The values that follow come from patent publication US11737462B2, “Methods for modulating plant response to environmentally-induced stress” (Howard University, priority 2012, dated 2023).

Sequence of RACK1A (O24456 whole entry): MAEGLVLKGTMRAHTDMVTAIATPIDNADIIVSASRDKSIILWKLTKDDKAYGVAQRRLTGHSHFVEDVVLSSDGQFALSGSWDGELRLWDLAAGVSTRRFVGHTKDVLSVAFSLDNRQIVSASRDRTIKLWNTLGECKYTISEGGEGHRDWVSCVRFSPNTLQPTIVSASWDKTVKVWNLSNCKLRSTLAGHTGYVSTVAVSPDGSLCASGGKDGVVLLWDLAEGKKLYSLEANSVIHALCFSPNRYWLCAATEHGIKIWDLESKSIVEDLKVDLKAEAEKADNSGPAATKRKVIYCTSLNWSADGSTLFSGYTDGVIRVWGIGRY
T1 sequence (O24456 whole entry): as above

For `Nn1c(SCc2ccc(F)cc2)nnc1-c1ccc(Cl)cc1` [SD-29-7], the “UV-B induced cell death in yeast cells (AA)” value (shortened to “UV-B induced cell death … (AA)”) in experiment [1] is given as “did not protect the cells”.
`COc1ccc2[nH]cc(CC(N)C(=O)O)c2c1` (stereo not shown) [SD-125]: the “tyrosine phosphorylation (Y248) based homodimerization of RACK1A proteins” value (“tyrosine phosphorylation … of RACK1A proteins” below) at RACK1A was “prevent tyrosine phosphorylation (Y248) based homodimerization of RACK1A proteins”.
As to `Cc1cc(Cl)ccc1NC(=O)CSc1nnc(-c2cccc(Cl)c2)n1N` [SD-29-9], on RACK1A, the “tyrosine phosphorylation … of RACK1A proteins” value is listed as “prevent tyrosine phosphorylation (Y248) based homodimerization of RACK1A proteins”. In addition, the “Arabidopsis RACK1A tyrosine phosphorylation at increased temperature” value on Arabidopsis RACK1A was “effective to prevent Arabidopsis RACK1A tyrosine phosphorylation at increased temperature”. Also, the “UV-B induced cell death … (AA)” value in experiment [1] was “effective to protect yeast cells from UV-B induced cell death”.
As to `Cc1ccc2[nH]cc(C(O)C(F)(F)F)c2c1` (stereo not shown) [SD-34], the “tyrosine phosphorylation … of RACK1A proteins” value on RACK1A is recorded as “prevent tyrosine phosphorylation (Y248) based homodimerization of RACK1A proteins”.
Turning to `COc1cc(-c2nnc(SCC(=O)Nc3ccc(Oc4ccccc4)cc3)n2N)cc(OC)c1OC` [SD-29-11], the “tyrosine phosphorylation … of RACK1A proteins” value at RACK1A is “prevent tyrosine phosphorylation (Y248) based homodimerization of RACK1A proteins”. Besides, the “UV-B induced cell death … (AA)” value in experiment [1] is “effective to protect yeast cells from UV-B induced cell death”.
As to `COc1ccc(-c2nnc(SCC(=O)O)n2N)cc1` [SD-29-12], in the experiment with Y248F mutant yeast (YY), the “UV-B induced cell death in Y248F mutant yeast (YY)” value was “failed to provide protection from UV-B induced cell death”. Besides, in the experiment with Arabidopsis plants (42° C., vs vehicle control (DMSO)), the “high temperature stress induced deformations in Arabidopsis plants” value was “very effective in preventing high temperature stress induced deformations”. Besides, the “heat sensitivity when applied to a plant” value in the experiment on Arabidopsis plants (in vivo) is on record as “does not induce heat sensitivity”. Also, in the experiment with plant, the “salt sensitivity when applied to a plant” value is on record as “induces salt sensitivity”. In addition, the “UV-B induced cell death … (AA)” value in experiment [1] is given as “effective to prevent UV-B induced cell death”.
